According to ChEMBL document CHEMBL5653631, “A Potent and Selective ULK1 Inhibitor Suppresses Autophagy and Sensitizes Cancer Cells to Nutrient Stress” (iScience, 2018):

What was measured:
[1] = molecular target: Protein-tyrosine kinase 2-beta (Homo sapiens) (UniProt Q14289); assay: Inhibition of human recombinant PYK2 at 15 nM related to control ULK1
[2] = molecular target: T1, Tyrosine-protein kinase receptor TYRO3 (Homo sapiens) (UniProt Q06418); assay: Inhibition of human recombinant TYRO3 at 15 nM in presence of ATP by radiometric assay relative to control
T1 sequence (whole entry): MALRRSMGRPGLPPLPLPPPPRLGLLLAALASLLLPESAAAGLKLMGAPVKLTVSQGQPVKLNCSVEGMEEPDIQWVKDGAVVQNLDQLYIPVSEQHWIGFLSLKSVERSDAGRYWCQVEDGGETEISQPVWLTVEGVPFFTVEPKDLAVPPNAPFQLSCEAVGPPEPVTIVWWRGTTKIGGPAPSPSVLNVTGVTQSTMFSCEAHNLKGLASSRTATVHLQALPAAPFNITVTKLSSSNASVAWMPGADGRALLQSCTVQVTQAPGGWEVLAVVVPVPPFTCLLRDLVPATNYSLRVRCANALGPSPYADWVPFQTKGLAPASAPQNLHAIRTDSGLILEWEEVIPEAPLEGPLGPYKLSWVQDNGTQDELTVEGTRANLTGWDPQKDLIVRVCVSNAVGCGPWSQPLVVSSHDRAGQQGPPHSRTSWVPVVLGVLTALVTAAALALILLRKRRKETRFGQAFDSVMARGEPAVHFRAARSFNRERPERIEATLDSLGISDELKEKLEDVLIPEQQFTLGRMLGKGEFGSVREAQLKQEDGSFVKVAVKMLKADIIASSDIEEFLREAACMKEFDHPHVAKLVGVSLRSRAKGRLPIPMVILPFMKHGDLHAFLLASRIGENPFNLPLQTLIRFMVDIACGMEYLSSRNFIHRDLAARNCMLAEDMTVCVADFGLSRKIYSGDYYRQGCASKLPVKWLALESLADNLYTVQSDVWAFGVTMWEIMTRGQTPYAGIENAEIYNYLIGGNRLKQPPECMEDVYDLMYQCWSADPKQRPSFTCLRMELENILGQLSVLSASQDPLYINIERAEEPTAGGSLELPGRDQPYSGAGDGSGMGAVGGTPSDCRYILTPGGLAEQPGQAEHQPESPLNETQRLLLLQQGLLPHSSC

[3] = molecular target: T2, Serine/threonine-protein kinase TAO2 (Homo sapiens) (UniProt Q9UL54); assay: Inhibition of human recombinant TAO2 at 15 nM in presence of ATP by radiometric assay relative to control
T2 sequence (whole entry): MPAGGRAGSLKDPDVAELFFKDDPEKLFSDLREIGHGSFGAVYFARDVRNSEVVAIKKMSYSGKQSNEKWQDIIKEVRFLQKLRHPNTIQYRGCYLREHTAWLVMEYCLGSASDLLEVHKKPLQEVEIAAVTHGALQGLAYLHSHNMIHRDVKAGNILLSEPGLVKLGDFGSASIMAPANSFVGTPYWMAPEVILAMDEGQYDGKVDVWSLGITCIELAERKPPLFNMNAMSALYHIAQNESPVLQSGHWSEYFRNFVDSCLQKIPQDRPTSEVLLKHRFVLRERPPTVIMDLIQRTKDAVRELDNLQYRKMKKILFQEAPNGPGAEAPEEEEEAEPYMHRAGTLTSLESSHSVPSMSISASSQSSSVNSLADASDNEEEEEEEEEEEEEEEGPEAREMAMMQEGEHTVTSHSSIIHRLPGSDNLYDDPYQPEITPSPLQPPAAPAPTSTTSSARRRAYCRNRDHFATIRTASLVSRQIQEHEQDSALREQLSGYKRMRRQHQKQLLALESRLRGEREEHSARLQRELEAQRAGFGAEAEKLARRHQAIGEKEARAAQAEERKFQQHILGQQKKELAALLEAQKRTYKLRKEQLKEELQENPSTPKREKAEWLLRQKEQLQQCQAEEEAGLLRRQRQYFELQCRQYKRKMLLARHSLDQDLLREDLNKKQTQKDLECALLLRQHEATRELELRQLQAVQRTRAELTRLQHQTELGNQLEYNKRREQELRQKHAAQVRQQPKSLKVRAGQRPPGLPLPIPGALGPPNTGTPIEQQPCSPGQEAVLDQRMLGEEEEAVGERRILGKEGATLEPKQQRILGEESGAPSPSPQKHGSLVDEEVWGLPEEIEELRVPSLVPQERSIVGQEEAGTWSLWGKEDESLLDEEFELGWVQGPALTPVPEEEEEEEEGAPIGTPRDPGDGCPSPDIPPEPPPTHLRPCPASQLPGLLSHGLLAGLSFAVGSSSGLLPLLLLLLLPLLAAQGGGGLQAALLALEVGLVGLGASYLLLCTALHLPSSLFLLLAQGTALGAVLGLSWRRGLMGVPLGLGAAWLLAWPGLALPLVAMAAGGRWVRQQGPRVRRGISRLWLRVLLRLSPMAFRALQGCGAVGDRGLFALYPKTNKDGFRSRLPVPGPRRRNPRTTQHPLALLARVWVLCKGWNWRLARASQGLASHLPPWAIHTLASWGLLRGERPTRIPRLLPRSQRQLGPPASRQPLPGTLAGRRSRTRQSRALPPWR

[4] = molecular target: Serine/threonine-protein kinase Nek7 (Homo sapiens) (UniProt Q8TDX7); assay: Inhibition of human recombinant NEK7 at 15 nM related to control ULK1
[5] = molecular target: T3, Rhodopsin kinase GRK1 (Homo sapiens) (UniProt Q15835); assay: Inhibition of human recombinant RHOK at 40 nM related to control ULK1
T3 sequence (whole entry): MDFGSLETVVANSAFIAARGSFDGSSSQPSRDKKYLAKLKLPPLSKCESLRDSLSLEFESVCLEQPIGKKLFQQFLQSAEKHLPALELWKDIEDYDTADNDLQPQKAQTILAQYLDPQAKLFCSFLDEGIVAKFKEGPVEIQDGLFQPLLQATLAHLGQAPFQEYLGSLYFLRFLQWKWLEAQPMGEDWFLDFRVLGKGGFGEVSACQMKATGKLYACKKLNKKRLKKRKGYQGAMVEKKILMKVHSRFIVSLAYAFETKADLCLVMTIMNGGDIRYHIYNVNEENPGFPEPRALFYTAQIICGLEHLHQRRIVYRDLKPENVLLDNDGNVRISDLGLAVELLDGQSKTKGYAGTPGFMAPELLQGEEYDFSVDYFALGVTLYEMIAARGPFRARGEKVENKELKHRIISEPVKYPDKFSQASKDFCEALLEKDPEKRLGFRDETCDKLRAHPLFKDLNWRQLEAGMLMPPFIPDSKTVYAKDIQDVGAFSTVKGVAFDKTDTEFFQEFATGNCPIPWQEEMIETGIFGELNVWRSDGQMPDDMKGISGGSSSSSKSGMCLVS

Serine/threonine-protein kinase Nek7 (Homo sapiens), sequence (Q8TDX7 whole entry, looked up): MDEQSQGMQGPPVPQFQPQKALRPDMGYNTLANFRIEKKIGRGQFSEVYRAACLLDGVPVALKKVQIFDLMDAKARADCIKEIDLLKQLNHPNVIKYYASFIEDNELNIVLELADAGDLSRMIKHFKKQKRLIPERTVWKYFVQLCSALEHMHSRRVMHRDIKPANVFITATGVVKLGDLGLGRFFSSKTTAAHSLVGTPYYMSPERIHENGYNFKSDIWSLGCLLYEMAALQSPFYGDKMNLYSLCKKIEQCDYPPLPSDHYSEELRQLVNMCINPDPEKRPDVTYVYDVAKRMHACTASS
Protein-tyrosine kinase 2-beta (Homo sapiens), sequence (Q14289 whole entry, looked up): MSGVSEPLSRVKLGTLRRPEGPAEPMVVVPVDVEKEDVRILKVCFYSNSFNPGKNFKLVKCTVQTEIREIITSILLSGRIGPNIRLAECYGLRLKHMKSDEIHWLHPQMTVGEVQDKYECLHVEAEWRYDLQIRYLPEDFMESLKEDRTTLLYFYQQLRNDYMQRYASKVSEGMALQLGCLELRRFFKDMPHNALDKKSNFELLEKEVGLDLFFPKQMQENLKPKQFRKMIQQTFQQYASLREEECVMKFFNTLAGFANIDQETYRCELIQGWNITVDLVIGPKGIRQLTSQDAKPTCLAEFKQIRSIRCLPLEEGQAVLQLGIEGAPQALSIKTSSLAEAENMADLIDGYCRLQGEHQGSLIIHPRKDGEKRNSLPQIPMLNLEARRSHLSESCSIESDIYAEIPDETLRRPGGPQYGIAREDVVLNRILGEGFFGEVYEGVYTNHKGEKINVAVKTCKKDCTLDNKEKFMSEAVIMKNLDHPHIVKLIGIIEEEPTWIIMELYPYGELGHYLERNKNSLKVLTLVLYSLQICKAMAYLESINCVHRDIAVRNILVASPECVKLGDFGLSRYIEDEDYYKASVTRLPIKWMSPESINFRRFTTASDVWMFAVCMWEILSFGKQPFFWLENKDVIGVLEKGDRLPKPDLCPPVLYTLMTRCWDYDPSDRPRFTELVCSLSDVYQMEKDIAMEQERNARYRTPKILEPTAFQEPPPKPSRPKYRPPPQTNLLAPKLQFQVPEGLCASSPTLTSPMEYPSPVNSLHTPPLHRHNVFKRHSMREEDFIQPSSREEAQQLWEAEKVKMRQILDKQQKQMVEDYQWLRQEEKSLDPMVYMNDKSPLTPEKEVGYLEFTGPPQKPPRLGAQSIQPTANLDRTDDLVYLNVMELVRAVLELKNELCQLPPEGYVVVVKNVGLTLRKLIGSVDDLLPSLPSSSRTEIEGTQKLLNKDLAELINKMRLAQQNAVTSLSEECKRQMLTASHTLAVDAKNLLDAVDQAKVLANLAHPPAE

| SMILES | fold change (FC) [1] | inhibition [2] [%] | inhibition [3] [%] | fold change (FC) [4] | fold change (FC) [5] |
| --- | --- | --- | --- | --- | --- |
| CC(C)[C@H](NC(=O)c1cc(-c2cnn3cc(-c4ccc(OCCN5CCCCC5)cc4)cnc23)cs1)C(F)(F)F | 0 | 0 | 0 | 0 |  |
| O=C(N[C@@H](C1CC1)C(F)(F)F)c1cc(-c2cnn3cc(-c4ccc(F)cc4)cnc23)cs1 |  |  |  |  | 0.01 |
